Values joined by “and” are separate entries in the source; they are usually repeats but may differ in a detail not shown here. Equal entries are not always repeated.
Assays:
[1] = biological target: T1, bovine serum albumin (BSA) (Bos taurus, UniProt P02769); assay: High hydrostatic pressure fluorescence titration of ANS with BSA (1-2000 bar); format: binding; conditions: for Binding volume ΔVb1 (first binding site): from slope of lnKb1 vs p (1-2000 bar); for Binding volume ΔVb1 (first binding site) / Binding volume ΔVb2 (second binding site) / Binding volume ΔVb: per mol of protein; for Binding volume ΔVb2 (second binding site): from slope of lnKb2 vs p (1-2000 bar); for Binding volume ΔVb: from slope of lnKb vs p (1-2000 bar)
T1 construct: BSA, molecular weight of 66 kDa, 583 residues; purchased Sigma Aldrich Chemicals (Taufkirchen, Germany)
T1 sequence (P02769 25-607): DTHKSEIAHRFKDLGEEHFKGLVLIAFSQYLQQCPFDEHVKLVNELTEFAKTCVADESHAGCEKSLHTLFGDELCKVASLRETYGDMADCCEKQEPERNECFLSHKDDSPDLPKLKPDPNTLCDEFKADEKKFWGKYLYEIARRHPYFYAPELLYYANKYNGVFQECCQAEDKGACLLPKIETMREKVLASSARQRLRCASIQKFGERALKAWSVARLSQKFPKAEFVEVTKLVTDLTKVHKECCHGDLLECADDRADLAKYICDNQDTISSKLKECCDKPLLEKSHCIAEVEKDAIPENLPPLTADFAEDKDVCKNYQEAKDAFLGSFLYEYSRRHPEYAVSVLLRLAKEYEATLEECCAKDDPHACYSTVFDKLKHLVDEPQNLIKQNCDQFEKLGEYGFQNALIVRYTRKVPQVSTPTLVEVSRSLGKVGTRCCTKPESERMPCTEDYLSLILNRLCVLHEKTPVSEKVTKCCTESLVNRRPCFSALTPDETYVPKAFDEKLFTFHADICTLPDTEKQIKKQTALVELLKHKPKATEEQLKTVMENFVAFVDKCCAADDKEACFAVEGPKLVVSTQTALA
Excerpt: The extent of complex formation between ANS and BSA was followed by means of steady-state fluorescence spectroscopy using a K2 fluorometer from ISS, Inc. (Champaign, IL, USA). The binding isotherms were obtained by recording ANS emission spectra by exciting the solutions at 350 nm and recording the emission intensities in the range 400–550 nm. The width slits of the excitation and emission monochromators were both set to 8 nm. Briefly, a series of solutions with a fixed concentration of ANS at ~5 µM were prepared, and the concentration of BSA was varied between 0 and ~40 µM. Then estimation of the binding constants (Kb) was performed by using a plot of ΔF = F − F0 (where F is the fluorescence intensity of ANS at the maximum in the presence of BSA, and F0 is the intensity of ANS in the absence of BSA) as a function of total BSA concentration and fitting the experimental data according to an equivalent and independent binding sites model or to two classes of non-equivalent and independent binding-site models, as described in detail in Reference.
For the pressure dependent measurements, the high-pressure cell system from ISS and quartz cuvettes were used. The pressure was controlled by means of a manual pump, and water was used as pressurizing fluid. A pressure range from 1 to 2000 bar was explored. The ANS and BSA solutions were mixed, vortexed, and then filled into the sample cell, which was sealed with DuraSeal^TM laboratory stretch film and placed into the high-pressure vessel. The stretch film allowed for the pressure transmission in the sample cuvette.
In the next step, we explored the impact of high hydrostatic pressure (HHP) on the binding of ANS to BSA in the presence of the three salts and in the temperature range between 5 and 25 °C. To this end, we performed the same titration experiments following the complex formation by means of HHP fluorescence spectroscopy.
From the pressure dependence of the Kb values, the volume change upon binding, the protein–ligand binding volume ΔVb, can be determined (for an in-depth discussion of pressure effects on ligand binding, please refer to Reference and references therein):(1) [∂lnKb/∂p]T=−ΔVb/RT
Here, [∂lnKb/∂p]T is the derivative of the logarithm of the binding constant (Kb) with respect to pressure (p) at constant temperature (T). R is the universal gas constant. ΔVb is the binding volume defined as the difference between the partial molar volume of the complex (PL, where P is the protein and L the ligand) and the sum of the partial molar volumes of the uncomplexed state (P+L). Thus, the binding volume can be directly estimated by taking the slope of a plot of lnKb vs. p, assuming that the volume change is independent of pressure in the (here rather small) pressure range covered.

[2] = biological target: T1, bovine serum albumin (BSA); assay: Job's plot (method of continuous variation) by steady-state fluorescence for binding stoichiometry; conditions: 1 bar
Procedure: First, we explored the impact of 250 mM MgCl2, Mg(ClO4)2, and MgSO4 on the ligand binding process at 25 °C and ambient pressure (1 bar). To be able to determine the binding constant, it is of fundamental importance to exactly know the stoichiometry of the complex formed. In this way, a proper binding model can be applied in the data analysis of the measured binding isotherms, providing the most appropriate value of the binding constant, Kb. We applied the method of continuous variation (or Job’s plot) for the estimation of the binding stoichiometry by means of steady-state fluorescence spectroscopy. A series of solutions were prepared such that the total concentration (i.e., [ANS] + [BSA]) is constant, while the mole fractions of the interacting partners were varied. Discontinuities in the plot of fluorescence intensity vs. xANS (where xANS is the mole fraction of ANS) are indicative of the stoichiometry of the complex formed.

[3] = biological target: T1, bovine serum albumin (BSA); conditions: neat buffer (10 mM Tris-HCl), no salt; cited from earlier work
[4] = 250 mM Mg(ClO4)2, 25 °C, [ANS]+[BSA] 35 µM

O=S(=O)(O)c1cccc2cccc(Nc3ccccc3)c12 [ANS, 8-anilinonaphthalene-1-sulfonic acid]
Binding volume ΔVb1 (first binding site) ([1]; 250 mM Mg(ClO4)2, 5 °C): -7.4 mL/mol and -7.4 ± 2.4 mL/mol
Binding volume ΔVb2 (second binding site) ([1]; 250 mM Mg(ClO4)2, 5 °C): -12.9 mL/mol and -12.9 ± 3.2 mL/mol
Binding volume ΔVb1 (first binding site) ([1]; 250 mM Mg(ClO4)2, 15 °C): -6.0 ± 1.0 mL/mol
Binding volume ΔVb2 (second binding site) ([1]; 250 mM Mg(ClO4)2, 15 °C): -5.0 ± 1.0 mL/mol
Binding volume ΔVb1 (first binding site) ([1]; 250 mM Mg(ClO4)2, 25 °C): 6.0 ± 2.0 mL/mol
Binding volume ΔVb2 (second binding site) ([1]; 250 mM Mg(ClO4)2, 25 °C): 2.0 ± 1.0 mL/mol
Increase of Kb with pressure (factor) ([1]; 250 mM MgCl2, 5 °C, up to 2 kbar): about a factor of two
Binding volume ΔVb ([1]; 250 mM MgCl2, 15 °C): -2.5 ± 0.4 mL/mol
Binding volume ΔVb ([1]; 250 mM MgCl2, 25 °C): -1.0 ± 1.0 mL/mol
Binding volume ΔVb ([1]; 250 mM MgSO4, 5 °C): 2.0 ± 1.0 mL/mol
Binding volume ΔVb ([1]; 250 mM MgSO4, 15 °C): -2.0 ± 1.0 mL/mol
Binding volume ΔVb ([1]; 250 mM MgSO4, 25 °C): 3.6 ± 0.5 mL/mol
Kd ([1]; Binding constant Kb1, 250 mM Mg(ClO4)2, 5 °C, 1 bar): 5260 nM
Kd ([1]; Binding constant Kb1, 250 mM Mg(ClO4)2, 5 °C, 500 bar): 3130 nM
Kd ([1]; Binding constant Kb1, 250 mM Mg(ClO4)2, 5 °C, 1000 bar): 2940 nM
Kd ([1]; Binding constant Kb1, 250 mM Mg(ClO4)2, 5 °C, 1500 bar): 2860 nM
Kd ([1]; Binding constant Kb1, 250 mM Mg(ClO4)2, 5 °C, 2000 bar): 2560 nM
Kd ([1]; Binding constant Kb1, 250 mM Mg(ClO4)2, 15 °C, 1 bar): 6670 nM
Kd ([1]; Binding constant Kb1, 250 mM Mg(ClO4)2, 15 °C, 500 bar): 7140 nM
Kd ([1]; Binding constant Kb1, 250 mM Mg(ClO4)2, 15 °C, 1000 bar): 5260 nM
Kd ([1]; Binding constant Kb1, 250 mM Mg(ClO4)2, 15 °C, 1500 bar): 4760 nM
Kd ([1]; Binding constant Kb1, 250 mM Mg(ClO4)2, 15 °C, 2000 bar): 3850 nM
Kd ([1]; Binding constant Kb1, 250 mM Mg(ClO4)2, 25 °C, 1 bar): 1690 nM
Kd ([1]; Binding constant Kb1, 250 mM Mg(ClO4)2, 25 °C, 500 bar): 1690 nM
Kd ([1]; Binding constant Kb1, 250 mM Mg(ClO4)2, 25 °C, 1000 bar): 2630 nM
Kd ([1]; Binding constant Kb1, 250 mM Mg(ClO4)2, 25 °C, 1500 bar): 2940 nM
Kd ([1]; Binding constant Kb1, 250 mM Mg(ClO4)2, 25 °C, 2000 bar): 2500 nM
Kd ([1]; Binding constant Kb1, 250 mM MgCl2, 5 °C, 1 bar): 1000 ± 100 nM
Kd ([1]; Binding constant Kb1, 250 mM MgCl2, 5 °C, 500 bar): 1000 ± 200 nM
Kd ([1]; Binding constant Kb1, 250 mM MgCl2, 5 °C, 1000 bar): 833 nM
Kd ([1]; Binding constant Kb1, 250 mM MgCl2, 5 °C, 1500 bar): 556 nM
Kd ([1]; Binding constant Kb1, 250 mM MgCl2, 5 °C, 2000 bar): 526 nM
Kd ([1]; Binding constant Kb1, 250 mM MgCl2, 15 °C, 1 bar): 2780 nM
Kd ([1]; Binding constant Kb1, 250 mM MgCl2, 15 °C, 500 bar): 2500 nM
Kd ([1]; Binding constant Kb1, 250 mM MgCl2, 15 °C, 1000 bar): 2440 nM
Kd ([1]; Binding constant Kb1, 250 mM MgCl2, 15 °C, 1500 bar): 2330 nM
Kd ([1]; Binding constant Kb1, 250 mM MgCl2, 15 °C, 2000 bar): 2220 nM
Kd ([1]; Binding constant Kb1, 250 mM MgCl2, 25 °C, 1 bar): 204 nM
Kd ([1]; Binding constant Kb1, 250 mM MgCl2, 25 °C, 500 bar): 233 nM
Kd ([1]; Binding constant Kb1, 250 mM MgCl2, 25 °C, 1000 bar): 222 nM
Kd ([1]; Binding constant Kb1, 250 mM MgCl2, 25 °C, 1500 bar): 204 nM
Kd ([1]; Binding constant Kb1, 250 mM MgCl2, 25 °C, 2000 bar): 192 nM
Kd ([1]; Binding constant Kb1, 250 mM MgSO4, 5 °C, 1 bar): 1610 nM
Kd ([1]; Binding constant Kb1, 250 mM MgSO4, 5 °C, 500 bar): 2080 nM
Kd ([1]; Binding constant Kb1, 250 mM MgSO4, 5 °C, 1000 bar): 2130 nM
Kd ([1]; Binding constant Kb1, 250 mM MgSO4, 5 °C, 1500 bar): 1820 nM
Kd ([1]; Binding constant Kb1, 250 mM MgSO4, 5 °C, 2000 bar): 2270 nM
Kd ([1]; Binding constant Kb1, 250 mM MgSO4, 15 °C, 1 bar): 2560 nM
Kd ([1]; Binding constant Kb1, 250 mM MgSO4, 15 °C, 500 bar): 2500 nM
Kd ([1]; Binding constant Kb1, 250 mM MgSO4, 15 °C, 1000 bar): 2380 nM
Kd ([1]; Binding constant Kb1, 250 mM MgSO4, 15 °C, 1500 bar): 2330 nM
Kd ([1]; Binding constant Kb1, 250 mM MgSO4, 15 °C, 2000 bar): 2220 nM
Kd ([1]; Binding constant Kb1, 250 mM MgSO4, 25 °C, 1 bar): 345 nM
Kd ([1]; Binding constant Kb1, 250 mM MgSO4, 25 °C, 500 bar): 345 nM
Kd ([1]; Binding constant Kb1, 250 mM MgSO4, 25 °C, 1000 bar): 370 nM
Kd ([1]; Binding constant Kb1, 250 mM MgSO4, 25 °C, 1500 bar): 417 nM
Kd ([1]; Binding constant Kb1, 250 mM MgSO4, 25 °C, 2000 bar): 455 nM
Kd ([1]; Binding constant Kb2, 250 mM Mg(ClO4)2, 5 °C, 1 bar): 5260 nM
Kd ([1]; Binding constant Kb2, 250 mM Mg(ClO4)2, 5 °C, 500 bar): 2500 nM
Kd ([1]; Binding constant Kb2, 250 mM Mg(ClO4)2, 5 °C, 1000 bar): 2940 nM
Kd ([1]; Binding constant Kb2, 250 mM Mg(ClO4)2, 5 °C, 1500 bar): 1920 nM
Kd ([1]; Binding constant Kb2, 250 mM Mg(ClO4)2, 5 °C, 2000 bar): 1520 nM
Kd ([1]; Binding constant Kb2, 250 mM Mg(ClO4)2, 15 °C, 1 bar): 7690 nM
Kd ([1]; Binding constant Kb2, 250 mM Mg(ClO4)2, 15 °C, 500 bar): 6670 nM
Kd ([1]; Binding constant Kb2, 250 mM Mg(ClO4)2, 15 °C, 1000 bar): 5260 nM
Kd ([1]; Binding constant Kb2, 250 mM Mg(ClO4)2, 15 °C, 1500 bar): 4760 nM
Kd ([1]; Binding constant Kb2, 250 mM Mg(ClO4)2, 15 °C, 2000 bar): 4170 nM
Kd ([1]; Binding constant Kb2, 250 mM Mg(ClO4)2, 25 °C, 1 bar): 833 nM
Kd ([1]; Binding constant Kb2, 250 mM Mg(ClO4)2, 25 °C, 500 bar): 909 nM
Kd ([1]; Binding constant Kb2, 250 mM Mg(ClO4)2, 25 °C, 1000 bar): 833 nM
Kd ([1]; Binding constant Kb2, 250 mM Mg(ClO4)2, 25 °C, 1500 bar): 833 nM
Kd ([1]; Binding constant Kb2, 250 mM Mg(ClO4)2, 25 °C, 2000 bar): 1120 nM
ANS molecules bound to one BSA molecule ([2]; 250 mM Mg(ClO4)2, 25 °C): two
Job's plot first inflection point xANS [2, 4]: 0.5
Job's plot second inflection point xANS [2, 4]: ≈ 0.65
Job's plot inflection point xANS (mole fraction of ANS) ([2]; 250 mM MgCl2, 25 °C, [ANS]+[BSA] 35 µM): ≈ 0.75
ANS molecules bound to one BSA molecule ([2]; 250 mM MgSO4, 25 °C): three
Job's plot inflection point xANS (mole fraction of ANS) ([2]; 250 mM MgSO4, 25 °C, [ANS]+[BSA] 35 µM): ≈ 0.75
ANS molecules bound on average to one BSA molecule [3]: three

Source: publication PMC8301423, “The Effects of Temperature and Pressure on Protein-Ligand Binding in the Presence of Mars-Relevant Salts” (Biology, 2021)
